Laboratory results published in US20230414599A1, “NICOTINAMIDE, NICOTINAMIDE PRECURSORS AND NICOTINAMIDE METABOLITES AND COMPOSITIONS THEREOF FOR REDUCING THE TIME TO RESOLUTION OF SYMPTOMS IN PATIENTS WITH COVID-19 AND OTHER VIRAL INFECTIONS” (CONARIS RESEARCH INSTITUTE AG, priority 2020, published 2023).
Where two headings read alike, the source gives them in different places.

Test system: COVID-19
Conditions: 500 mg IR + 500 mg CICR-NAM daily; for Ability to perform normal activities, complaint scale 0-6, mean change / Ability to perform normal activities, complaint scale 0-6, median change: week 6 - baseline
[1] = week 4, current or former smokers, n = 75
[2] = week 4, patients with cough and fever, n = 15
[3] = week 4, patients with cough, n = 106
[4] = week 4, patients with fever, n = 21
[5] = week 4, ≥1 risk factor for severe COVID-19, n = 117
[6] = BMI ≥30.0 or type 2 diabetes, n = 27
[7] = current or former smokers, n = 75
[8] = patients with cough and fever, n = 15
[9] = ≥1 risk factor for severe COVID-19, n = 117
[10] = week 6, BMI ≥30.0 or type 2 diabetes, n = 27
[11] = week 6, current or former smokers, n = 75
[12] = week 6, patients with cough and fever, n = 15
[13] = week 6, patients with cough, n = 106
[14] = week 6, patients with fever, n = 21
[15] = week 6, ≥1 risk factor for severe COVID-19, n = 117

Structure (SMILES): NC(=O)c1cccnc1 [Nicotinamide, nicotinamide]
- Ability to perform normal activities worse vs baseline, % of patients [1]: 6.67%
- Ability to perform normal activities worse vs baseline, patients [1]: 5
- Ability to perform normal activities, complaint scale 0-6, mean [1]: 0.920
- Ability to perform normal activities, complaint scale 0-6, median [1]: 0.000
- Reduced physical performance constant vs baseline, % of patients [1]: 38.67%
- Reduced physical performance constant vs baseline, patients [1]: 29
- Reduced physical performance improved vs baseline, % of patients [1]: 56.00%
- Reduced physical performance improved vs baseline, patients [1]: 42
- Reduced physical performance worse vs baseline, % of patients [1]: 5.33%
- Reduced physical performance worse vs baseline, patients [1]: 4
- Ability to perform normal activities, complaint scale 0-6, mean [2]: 1.200
- Ability to perform normal activities, complaint scale 0-6, median [2]: 0.0
- Ability to perform normal activities, complaint scale 0-6, mean [3]: 0.736
- Ability to perform normal activities, complaint scale 0-6, median [3]: 0.0
- Ability to perform normal activities, complaint scale 0-6, mean [4]: 1.048
- Ability to perform normal activities, complaint scale 0-6, median [4]: 0.0
- Ability to perform normal activities constant vs baseline, % of patients [5]: 8.55%
- Ability to perform normal activities constant vs baseline, patients [5]: 10
- Ability to perform normal activities improved vs baseline, % of patients [5]: 84.62%
- Ability to perform normal activities improved vs baseline, patients [5]: 99
- Ability to perform normal activities worse vs baseline, % of patients [5]: 6.84%
- Ability to perform normal activities worse vs baseline, patients [5]: 8
- Ability to perform normal activities, complaint scale 0-6, mean [5]: 0.880
- Ability to perform normal activities, complaint scale 0-6, median [5]: 0.0
- Reduced physical performance constant vs baseline, % of patients [5]: 47.86%
- Reduced physical performance constant vs baseline, patients [5]: 56
- Reduced physical performance improved vs baseline, % of patients [5]: 47.01%
- Reduced physical performance improved vs baseline, patients [5]: 55
- Reduced physical performance worse vs baseline, % of patients [5]: 5.13%
- Reduced physical performance worse vs baseline, patients [5]: 6
- Ability to perform normal activities, complaint scale 0-6, mean change [6]: −1.741
- Ability to perform normal activities, complaint scale 0-6, median change [6]: −2.000
- Ability to perform normal activities, complaint scale 0-6, mean change [7]: −2.587
- Ability to perform normal activities, complaint scale 0-6, median change [7]: −3.000
- Ability to perform normal activities, complaint scale 0-6, mean change [8]: −2.933
- Ability to perform normal activities, complaint scale 0-6, median change [8]: −3.0
- Ability to perform normal activities, complaint scale 0-6, mean change (patients with cough, n = 106): −2.255
- Ability to perform normal activities, complaint scale 0-6, median change (patients with cough, n = 106): −2.0
- Ability to perform normal activities, complaint scale 0-6, mean change (patients with fever, n = 21): −3.238
- Ability to perform normal activities, complaint scale 0-6, median change (patients with fever, n = 21): −4.0
- Ability to perform normal activities, complaint scale 0-6, mean change [9]: −2.419
- Ability to perform normal activities, complaint scale 0-6, median change [9]: −3.0
- Ability to perform normal activities constant vs baseline, % of patients [10]: 11.11%
- Ability to perform normal activities constant vs baseline, patients [10]: 3
- Ability to perform normal activities improved vs baseline, % of patients [10]: 74.07%
- Ability to perform normal activities improved vs baseline, patients [10]: 20
- Ability to perform normal activities worse vs baseline, % of patients [10]: 14.81%
- Ability to perform normal activities worse vs baseline, patients [10]: 4
- Ability to perform normal activities, complaint scale 0-6, mean [10]: 1.296
- Ability to perform normal activities, complaint scale 0-6, median [10]: 1.000
- Cough complaint scale 0-6, mean [10]: 0.370
- Cough complaint scale 0-6, median [10]: 0.000
- Ability to perform normal activities constant vs baseline, % of patients [11]: 12.00%
- Ability to perform normal activities constant vs baseline, patients [11]: 9
- Ability to perform normal activities improved vs baseline, % of patients [11]: 82.67%
- Ability to perform normal activities improved vs baseline, patients [11]: 62
- Ability to perform normal activities worse vs baseline, % of patients [11]: 5.33%
- Ability to perform normal activities worse vs baseline, patients [11]: 4
- Ability to perform normal activities, complaint scale 0-6, mean [11]: 0.787
- Ability to perform normal activities, complaint scale 0-6, median [11]: 0.000
- Presence of cough constant vs baseline, % of patients [11]: 54.67%
- Presence of cough constant vs baseline, patients [11]: 41
- Presence of cough improved vs baseline, % of patients [11]: 42.67%
- Presence of cough improved vs baseline, patients [11]: 32
- Presence of cough worse vs baseline, % of patients [11]: 2.67%
- Presence of cough worse vs baseline, patients [11]: 2
- Reduced physical performance constant vs baseline, % of patients [11]: 38.67%
- Reduced physical performance constant vs baseline, patients [11]: 29
- Reduced physical performance improved vs baseline, % of patients [11]: 56.00%
- Reduced physical performance improved vs baseline, patients [11]: 42
- Reduced physical performance worse vs baseline, % of patients [11]: 5.33%
- Reduced physical performance worse vs baseline, patients [11]: 4
- Ability to perform normal activities, complaint scale 0-6, mean [12]: 1.067
- Ability to perform normal activities, complaint scale 0-6, median [12]: 0.0
- Ability to perform normal activities, complaint scale 0-6, mean [13]: 0.660
- Ability to perform normal activities, complaint scale 0-6, median [13]: 0.0
- Ability to perform normal activities, complaint scale 0-6, mean [14]: 0.762
- Ability to perform normal activities, complaint scale 0-6, median [14]: 0.0
- Ability to perform normal activities constant vs baseline, % of patients [15]: 11.97%
- Ability to perform normal activities constant vs baseline, patients [15]: 14
- Ability to perform normal activities improved vs baseline, % of patients [15]: 82.05%
- Ability to perform normal activities improved vs baseline, patients [15]: 96
- Ability to perform normal activities worse vs baseline, % of patients [15]: 5.98%
- Ability to perform normal activities worse vs baseline, patients [15]: 7
- Ability to perform normal activities, complaint scale 0-6, mean [15]: 0.769
- Ability to perform normal activities, complaint scale 0-6, median [15]: 0.0
- Fatigue constant vs baseline, % of patients [15]: 38.46%
- Fatigue constant vs baseline, patients [15]: 45
- Fatigue improved vs baseline, % of patients [15]: 59.83%
- Fatigue improved vs baseline, patients [15]: 70
- Fatigue worse vs baseline, % of patients [15]: 1.71%
- Fatigue worse vs baseline, patients [15]: 2
- Reduced physical performance constant vs baseline, % of patients [15]: 40.17%
- Reduced physical performance constant vs baseline, patients [15]: 47
- Reduced physical performance improved vs baseline, % of patients [15]: 54.70%
- Reduced physical performance improved vs baseline, patients [15]: 64
- Reduced physical performance worse vs baseline, % of patients [15]: 5.13%
- Reduced physical performance worse vs baseline, patients [15]: 6
